Data: patent US4146631A, “Benzamide derivatives” (May & Baker Limited, priority 1976, dated 1979)

Key:
[1] = tested on: passive cutaneous anaphylactic (PCA) reaction; assay: Passive cutaneous anaphylactic (PCA) reaction, reagin-allergen combination, in rats; assay type: in vivo; conditions: Rattus norvegicus; for ED100: intravenous, just before injection of allergen, read-out: ED100 (intravenous dose which produces 100% inhibition of the PCA reaction); for inhibition in vivo at 100 mg/kg: oral dose of 100 mg/kg; for inhibition in vivo at 100 mg/kg / ED50: thirty minutes before intravenous allergen; for ED50: oral, read-out: ED50 (oral dose which produces 50% inhibition of the PCA reaction)
Description: In pharmacological tests the benzamide derivatives of general formula I suppress the passive cutaneous anaphylactic (PCA) reaction resulting from combination of tissue-fixed reaginic antibodies with the appropriate antigenic material (termed reagin-allergen combination) and carried out in an essentially similar manner to that described by Ogilvie [Nature (Lond.), (1964), 204, 91-92; Immunology, (1967), 12, 112-131]. In the method used to test these compounds sera were obtained from rats which had been infected with larvae of the nematode parasite Nippostrongylus brasiliensis; as a result of the parasitic infestation reaginic antibodies are elaborated in the host mammal and are found in sera removed from such animals. Other, non-infected, rats received intradermal injections of appropriate dilutions of such sera and were then given the allergenic material along with Evans' blue dye intravenously forty-eight hours later.
The allergenic material consisted of supernatant fluid after centrifugation of homogenates of adult Nippostrongylus brasiliensis worms which had been macerated in Tyrode's solution. The sites of PCA reactions were visualised by the effusion of Evan's blue dye from the circulation into those areas as a result of increased capillary permeability caused by the release of biologically-active substances from cells where reagin-allergen combination had occurred. The new compounds when given intravenously to the rats just before injection of allergen, or administered orally thirty minutes before intravenous injection of allergen, were able to prevent the development of the PCA reaction, as shown below in Table I, Table II and Table III.

[2] = Acute intravenous toxicity in mice; conditions: mouse, in vivo, 2% w/v test solution
Description: Mice were each treated intravenously with an aqueous solution of the triethanolamine salt or sodium salt of one of the compounds of formula I, and they were observed until there had been at least 3 consecutive days without any deaths. The LD50 figures obtained (doses lethal to 50% of mice tested) are shown below in Table V, expressed in mg/kg animal body weight. In Table V, "Na" means that the sodium salt was used and "T" means that the triethanolamine salt was used.
The aqueous solutions were prepared as follows:
A mixture of the test compound and water was treated gradually with triethanolamine until complete solution occurred. The solution was then diluted with water to a concentration of test compound of either 1% w/v or 2% w/v.
The test compound was dissolved in aqueous sodium hydroxide (1N) and the solution was brought to pH 8 by treatment with hydrochloric acid. The solution was then diluted with water to a concentration of test compound of 2% w/v.
Various volumes of these solutions were then administered to the mice.

[3] = Acute oral toxicity in mice; conditions: mouse, in vivo, highest dose used 1000 mg/kg, read-out: LD50 (doses lethal to 50% of mice tested)
Description: Mice were each treated orally with one of the compounds of formula I, and they were observed daily until there had been at least 3 consecutive days without any deaths. The LD50 figures obtained (doses lethal to 50% of mice tested) are shown below in Table IV, expressed in mg/kg animal body weight.
The symbol ">" means "greater than" in this specification. Where the LD50 is said to be ">1000," a more precise estimation of the LD50 was not possible because the numbers of deaths was too small, even at the highest dose used, 1000 mg/kg.

CN(C)S(=O)(=O)c1ccc(O)c(C(=O)Nc2nnn[nH]2)c1 [AB, 2-hydroxy-5-(N,N-dimethylsulphamoyl)-N-(tetrazol-5-yl)benzamide]
ED100 [1]: 2 mg/kg

CC(C)N(C)S(=O)(=O)c1ccc(O)c(C(=O)Nc2nnn[nH]2)c1 [AC, 2-hydroxy-5-(N-methyl-N-isopropylsulphamoyl)-N-(tetrazol-5-yl)benzamide]
ED100 [1]: 5 mg/kg | inhibition in vivo at 100 mg/kg [1]: 20%

O=C(Nc1nnn[nH]1)c1cc(O)ccc1O [AF, 2,5-dihydroxy-N-(tetrazol-5-yl)benzamide]
ED100 [1]: 1 mg/kg

Cc1ccc(O)c(C(=O)Nc2nnn[nH]2)c1 [AG, 2-hydroxy-5-methyl-N-(tetrazol-5-yl)benzamide]
LD50 ([2]; sodium salt (Na)): 670 mg/kg | LD50 [3]: > 1000 mg/kg | ED100 [1]: 1 mg/kg

Cc1cccc(C(=O)Nc2nnn[nH]2)c1O [AH, 2-hydroxy-3-methyl-N-(tetrazol-5-yl)benzamide]
LD50 ([2]; triethanolamine salt (T)): 770 mg/kg | LD50 [3]: > 1000 mg/kg | ED100 [1]: 0.5 mg/kg | inhibition in vivo at 100 mg/kg [1]: 82% | ED50 [1]: 10 mg/kg

O=C(Nc1nnn[nH]1)c1ccc(O)cc1O [AJ, 2,4-dihydroxy-N-(tetrazol-5-yl)benzamide]
ED100 [1]: 10 mg/kg | inhibition in vivo at 100 mg/kg [1]: 38%

Cc1ccc(C(=O)Nc2nnn[nH]2)c(O)c1 [AK, 2-hydroxy-4-methyl-N-(tetrazol-5-yl)benzamide]
ED100 [1]: 10 mg/kg | inhibition in vivo at 100 mg/kg [1]: 32%

O=C(Nc1nnn[nH]1)c1cccc(Cl)c1O [AM, 3-chloro-2-hydroxy-N-(tetrazol-5-yl)benzamide]
ED100 [1]: 5 mg/kg | inhibition in vivo at 100 mg/kg [1]: 82% | ED50 [1]: 85 mg/kg

CCCCN(CCCC)S(=O)(=O)c1ccc(O)c(C(=O)Nc2nnn[nH]2)c1 [AQ, 5-(N,N-dibutylsulphamoyl)-2-hydroxy-N-(tetrazol-5-yl)benzamide]
LD50 ([2]; sodium salt (Na)): 280 mg/kg | LD50 [3]: > 1000 mg/kg

COc1ccc(C(=O)Nc2nnn[nH]2)c(O)c1 [AT, 2-hydroxy-4-methoxy-N-(tetrazol-5-yl)benzamide]
ED100 [1]: 5 mg/kg | inhibition in vivo at 100 mg/kg [1]: 8%

O=C(Nc1nnn[nH]1)c1ccc(Cl)cc1O [AX, 4-chloro-2-hydroxy-N-(tetrazol-5-yl)benzamide]
LD50 ([2]; triethanolamine salt (T)): 260 mg/kg | LD50 [3]: > 1000 mg/kg

O=C(Nc1nnn[nH]1)c1cc(Br)cc(Br)c1O [AY, 3,5-dibromo-2-hydroxy-N-(tetrazol-5-yl)benzamide]
ED100 [1]: 5 mg/kg | inhibition in vivo at 100 mg/kg [1]: 65%

CC(=O)Nc1ccc(O)c(C(=O)Nc2nnn[nH]2)c1 [AZ, 5-acetylamino-2-hydroxy-N-(tetrazol-5-yl)benzamide]
ED100 [1]: 10 mg/kg

O=C(Nc1nnn[nH]1)c1ccc(F)cc1O [BD, 4-fluoro-2-hydroxy-N-(tetrazol-5-yl)benzamide]
ED100 [1]: 10 mg/kg | inhibition in vivo at 100 mg/kg [1]: 75%

CSc1ccc(O)c(C(=O)Nc2nnn[nH]2)c1 [BF, 2-hydroxy-5-methylthio-N-(tetrazol-5-yl)benzamide]
ED100 [1]: 0.5 mg/kg

CSc1cccc(C(=O)Nc2nnn[nH]2)c1O [BI, 2-hydroxy-3-methylthio-N-(tetrazol-5-yl)benzamide]
LD50 ([2]; triethanolamine salt (T)): 580 mg/kg | ED100 [1]: 20 mg/kg

CS(=O)(=O)c1cccc(C(=O)Nc2nnn[nH]2)c1O [BJ, 2-hydroxy-3-methylsulphonyl-N-(tetrazol-5-yl)benzamide]
ED100 [1]: 20 mg/kg | inhibition in vivo at 100 mg/kg [1]: 64%

CS(=O)(=O)c1cc(C(=O)Nc2nnn[nH]2)c(O)c(S(C)(=O)=O)c1 [BK, 2-hydroxy-3,5-bis(methylsulphonyl)-N-(tetrazol-5-yl)benzamide]
ED100 [1]: 10 mg/kg | inhibition in vivo at 100 mg/kg [1]: 29%

O=Cc1ccc(O)c(C(=O)Nc2nnn[nH]2)c1 [BL, 5-formyl-2-hydroxy-N-(tetrazol-5-yl)benzamide]
ED100 [1]: 0.5 mg/kg | inhibition in vivo at 100 mg/kg [1]: 25%

O=C(Nc1nnn[nH]1)c1cc(Br)ccc1O [BM, 5-bromo-2-hydroxy-N-(tetrazol-5-yl)benzamide]
ED100 [1]: 5 mg/kg | inhibition in vivo at 100 mg/kg [1]: 46% | ED50 [1]: 65 mg/kg

CSc1ccc(C(=O)Nc2nnn[nH]2)c(O)c1 [BN, 2-hydroxy-4-methylthio-N-(tetrazol-5-yl)benzamide]
ED100 [1]: 10 mg/kg | inhibition in vivo at 100 mg/kg [1]: 8%

CS(=O)(=O)c1ccc(O)c(C(=O)Nc2nnn[nH]2)c1 [BO, 2-hydroxy-5-methylsulphonyl-N-(tetrazol-5-yl)benzamide]
ED100 [1]: 5 mg/kg | inhibition in vivo at 100 mg/kg [1]: 63%

O=C(Nc1ccc(O)c(C(=O)Nc2nnn[nH]2)c1)OCc1ccccc1 [BQ, 5-benzyloxycarbonylamino-2-hydroxy-N-(tetrazol-5-yl)benzamide]
ED100 [1]: 5 mg/kg

O=C(Nc1ccc(C(=O)Nc2nnn[nH]2)c(O)c1)OCc1ccccc1 [BR, 4-benzyloxycarbonylamino-2-hydroxy-N-(tetrazol-5-yl)benzamide]
ED100 [1]: 0.5 mg/kg

Cc1cc(C(=O)Nc2nnn[nH]2)c(O)c(S(=O)(=O)NC(C)(C)C)c1 [BT, 3-(N-tert-butylsulphamoyl)-2-hydroxy-5-methyl-N-(tetrazol-5-yl)benzamide]
LD50 ([2]; sodium salt (Na)): 500 mg/kg | LD50 [3]: > 1000 mg/kg

CC(=O)c1cc(Br)cc(C(=O)Nc2nnn[nH]2)c1O [CB, 3-acetyl-5-bromo-2-hydroxy-N-(tetrazol-5-yl)benzamide]
ED100 [1]: 2 mg/kg | inhibition in vivo at 100 mg/kg [1]: 66% | ED50 [1]: 64 mg/kg

CC(=O)c1cc(F)cc(C(=O)Nc2nnn[nH]2)c1O [CC, 3-acetyl-5-fluoro-2-hydroxy-N-(tetrazol-5-yl)benzamide]
ED100 [1]: 0.2 mg/kg | inhibition in vivo at 100 mg/kg [1]: 62% | ED50 [1]: 1.9 mg/kg

O=Cc1cccc(C(=O)Nc2nnn[nH]2)c1O [CH, 3-formyl-2-hydroxy-N-(tetrazol-5-yl)benzamide]
ED100 [1]: 0.5 mg/kg | inhibition in vivo at 100 mg/kg [1]: 75% | ED50 [1]: 5.3 mg/kg

Cc1cc(C=O)c(O)c(C(=O)Nc2nnn[nH]2)c1 [CI, 3-formyl-2-hydroxy-5-methyl-N-(tetrazol-5-yl)benzamide]
ED100 [1]: 2 mg/kg | inhibition in vivo at 100 mg/kg [1]: 70% | ED50 [1]: 5.4 mg/kg

N#Cc1ccc(O)c(C(=O)Nc2nnn[nH]2)c1 [CK, 5-cyano-2-hydroxy-N-(tetrazol-5-yl)benzamide]
ED100 [1]: 0.2 mg/kg | inhibition in vivo at 100 mg/kg [1]: 89% | ED50 [1]: 50 mg/kg

Cc1cc(C(=O)Nc2nnn[nH]2)c(O)c(-c2nnn[nH]2)c1 [CM, 2-hydroxy-5-methyl-3,N-bis(tetrazol-5-yl)benzamide]
ED100 [1]: 0.05 mg/kg | inhibition in vivo at 100 mg/kg [1]: 64%

O=C(O)c1cccc(C(=O)Nc2nn[nH]n2)c1O [CN, 3-N-(tetrazol-5-yl)carbamoylsalicylic acid]
ED100 [1]: 1 mg/kg | inhibition in vivo at 100 mg/kg [1]: 43% | ED50 [1]: 20 mg/kg

CC(C)(C)NC(=O)c1cccc(C(=O)Nc2nnn[nH]2)c1O [CO, 3-tert-butylcarbamoyl-2-hydroxy-N-(tetrazol-5-yl)benzamide]
ED100 [1]: 5 mg/kg | inhibition in vivo at 100 mg/kg [1]: 26%

CN(C)c1cccc(C(=O)Nc2nnn[nH]2)c1O [CP, 2-hydroxy-3-dimethylamino-N-(tetrazol-5-yl)benzamide]
ED100 [1]: 2 mg/kg | inhibition in vivo at 100 mg/kg [1]: 68% | ED50 [1]: 26 mg/kg

O=C(Nc1nnn[nH]1)c1ccc([N+](=O)[O-])cc1O [Compound AA, 2-hydroxy-4-nitro-N-(tetrazol-5-yl)benzamide]
ED100 [1]: 10 mg/kg | inhibition in vivo at 100 mg/kg [1]: 18%

Nc1ccc(O)c(C(=O)Nc2nnn[nH]2)c1 [Compound BS, 5-amino-2-hydroxy-N-(tetrazol-5-yl)benzamide]
ED100 [1]: 5 mg/kg | inhibition in vivo at 100 mg/kg [1]: 35%

CC(=O)c1cc(S(N)(=O)=O)cc(C(=O)Nc2nnn[nH]2)c1O [Compound BU, 3-acetyl-2-hydroxy-5-sulphamoyl-N-(tetrazol-5-yl)benzamide]
ED100 [1]: 0.5 mg/kg | inhibition in vivo at 100 mg/kg [1]: 86%

O=C(Nc1nnn[nH]1)c1cc(C(F)(F)F)ccc1O [Compound BV, 5-trifluoromethyl-2-hydroxy-N-(tetrazol-5-yl)benzamide]
ED100 [1]: 2 mg/kg | inhibition in vivo at 100 mg/kg [1]: 90% | ED50 [1]: 37 mg/kg

Cc1cc(C#N)c(O)c(C(=O)Nc2nnn[nH]2)c1 [Compound CL, 3-cyano-2-hydroxy-5-methyl-N-(tetrazol-5-yl)benzamide]
ED100 [1]: 2 mg/kg | inhibition in vivo at 100 mg/kg [1]: 26%
